Test results: article PMC6158167 (Nature Communications, 2018)

Columns and labels:
AtHTL = molecular target: T1, AtHTL (Arabidopsis thaliana, UniProt Q9SZU7); conditions: cited from earlier work
T1 sequence (Q9SZU7 1-270): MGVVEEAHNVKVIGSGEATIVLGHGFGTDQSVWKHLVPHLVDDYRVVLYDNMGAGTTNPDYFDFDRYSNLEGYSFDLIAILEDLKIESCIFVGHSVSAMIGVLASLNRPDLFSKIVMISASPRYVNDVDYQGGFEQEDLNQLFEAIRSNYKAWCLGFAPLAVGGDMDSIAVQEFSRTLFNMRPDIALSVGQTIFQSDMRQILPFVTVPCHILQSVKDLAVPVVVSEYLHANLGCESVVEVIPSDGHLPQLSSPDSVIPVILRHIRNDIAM

ShHTL7 [1] = molecular target: T2, ShHTL7 (Striga hermonthica, UniProt A0A0M3PNA2); assay: SL hydrolysis assay (HPLC), ShHTL7; type: biochemical; conditions: 3.2 μM SL, 1.6 μM enzyme, 30 min, 30 °C
T2 sequence (A0A0M3PNA2 1-271): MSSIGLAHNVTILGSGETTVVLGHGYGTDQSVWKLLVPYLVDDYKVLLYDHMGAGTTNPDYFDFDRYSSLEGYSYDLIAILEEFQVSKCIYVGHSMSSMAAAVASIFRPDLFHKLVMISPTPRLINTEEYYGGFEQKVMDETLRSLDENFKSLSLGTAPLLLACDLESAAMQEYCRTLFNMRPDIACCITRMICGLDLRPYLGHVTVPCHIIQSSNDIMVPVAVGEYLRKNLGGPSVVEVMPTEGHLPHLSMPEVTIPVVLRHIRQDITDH
Description: (§1) Next, 50 μL of 1 M HCl was added to each reaction solution, and the reaction solutions were extracted 3 times with 300 μL of ethyl acetate. The ethyl acetate layers were combined and dried in vacuo and were then dissolved in 50 μL of methanol. For each layer, 5 μL was applied to the reverse-phase HPLC (Shimadzu LC-2030C). The analytical column was a CAPCELL CORE C18 (Φ 2.1 × 100 mm, Shiseido). The analytes were eluted under gradient conditions at a flow rate of 0.20 mL min^−1 with a linear ramp of methanol to 90% methanol at 19 min, which was maintained for 6 min before resetting to the original conditions. […] The percentage of hydrolyzed SL was calculated and used for statistical analyses. One-tailed unpaired Student’s t-tests were used for comparison between buffer samples and enzyme samples.

ShD14 [2] = assay: SL hydrolysis assay (HPLC), ShD14; type: biochemical, Striga hermonthica; conditions: 3.2 μM SL, 1.6 μM enzyme, 30 min, 30 °C
Description: as §1

ShHTL1 [3] = molecular target: T3, ShHTL1 (Striga hermonthica, UniProt A0A0M4AV81); assay: SL hydrolysis assay (HPLC), ShHTL1; type: biochemical; conditions: 3.2 μM SL, 1.6 μM enzyme, 30 min, 30 °C
T3 sequence (A0A0M4AV81 entry or part of it): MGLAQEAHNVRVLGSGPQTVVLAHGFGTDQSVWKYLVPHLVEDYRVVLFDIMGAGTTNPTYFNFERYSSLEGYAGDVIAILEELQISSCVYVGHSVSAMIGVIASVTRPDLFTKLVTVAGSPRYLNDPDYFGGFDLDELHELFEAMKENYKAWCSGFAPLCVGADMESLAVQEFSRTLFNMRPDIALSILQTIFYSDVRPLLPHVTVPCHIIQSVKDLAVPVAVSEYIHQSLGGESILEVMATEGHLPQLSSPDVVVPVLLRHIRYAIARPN
Description: as §1

ShHTL4 = assay: SL hydrolysis assay (HPLC), ShHTL4; type: biochemical, Striga hermonthica; conditions: 3.2 μM SL, 1.6 μM enzyme, 30 min, 30 °C
Description: as §1

ShD14 [4] = assay: YLG hydrolysis assay, ShD14; type: biochemical, Striga hermonthica; conditions: fluorescence, repeated YLG hydrolysis assays
Description: The YLG assays were conducted as previously described[28] with minor modifications. […] The fluorescence intensity was measured using a SpectraMax® iD5 Multi-Mode Microplate Reader (Molecular Devices). Measurements were performed at room temperature under a 480 nm excitation wavelength, a 530 nm emission wavelength, a manual PMT of 500, and a read height of 1.00 mm. The fluorescence can be detected if YLG is hydrolyzed. […] The experiment was repeated 6 times independently. page 4: Supplementary Figure 4. YLG hydrolysis assays of OsD14 and ShD14. RFU (relative fluorescence units) was calculated by dividing the fluorescence of OsD14. The fluorescence can be detected under a 490 nm excitation wavelength and a 520 nm emission wavelength if YLG is hydrolyzed. The experiments were repeated 4 (OsD14) or 6 times independently. Columns represent the mean RFU, and the error bars represent the standard deviation (S.D.). Each replicate is indicated by a black circle.

ShD14 [5] = test system: ShD14; parameters: method as in PMID 26293962; conditions: cited from earlier work
ShHTL7 L124F/T190F/C194F = ShHTL7 L124F/T190F/C194F (Striga hermonthica, UniProt A0A0M3PNA2, C194F/L124F/T190F); assay: YLG competition assay, ShHTL7 triple mutation; type: biochemical
Sequence of ShHTL7 L124F/T190F/C194F (A0A0M3PNA2 whole entry L124F/T190F/C194F): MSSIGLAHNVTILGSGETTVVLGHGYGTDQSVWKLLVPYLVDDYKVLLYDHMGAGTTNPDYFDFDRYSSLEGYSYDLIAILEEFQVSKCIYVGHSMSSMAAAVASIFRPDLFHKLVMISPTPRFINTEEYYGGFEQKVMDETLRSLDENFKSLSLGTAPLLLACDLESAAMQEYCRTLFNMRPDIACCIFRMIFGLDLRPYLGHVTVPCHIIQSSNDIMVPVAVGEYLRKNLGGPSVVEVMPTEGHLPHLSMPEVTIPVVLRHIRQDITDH
Description: (§2) The YLG assays were conducted as previously described[28] with minor modifications. Ten microliters of 0.1 mg mL^−1 ShHTL7 protein in a reaction buffer containing 20 mM HEPES, pH 7.0, 150 mM NaCl and 80 μL of reaction buffer were mixed in a 96-well black plate (Grenier). Ten microliters of 10 μM YLG was added to the solution and incubated at 25 °C for 1 h prior to measurement. The fluorescence intensity was measured using a SpectraMax® iD5 Multi-Mode Microplate Reader (Molecular Devices). Measurements were performed at room temperature under a 480 nm excitation wavelength, a 530 nm emission wavelength, a manual PMT of 500, and a read height of 1.00 mm. The fluorescence can be detected if YLG is hydrolyzed. The RFU (relative fluorescence unit) was calculated by subtracting the fluorescence of the buffer (without protein) and then dividing by the fluorescence of wild-type ShHTL7. […]
(§3) in a previous study6, the enzymes were incubated with YLG at the indicated concentrations. The RFU (relative fluorescence units) was calculated by dividing the fluorescence of hydrolysis at 10 μM YLG by wild type (WT) ShHTL7 after subtracting the fluorescence of the buffer. The Km values were calculated from a Michaelis-Menten plot using GraphPad Prism software and are shown in the plots. […]
(§4) The inhibition constant Ki was calculated according to the Cheng-Prusoff equation7. […]

ShHTL7 T190F/C194F [6] = assay: YLG competition assay, ShHTL7 double mutation; type: biochemical, Striga hermonthica; conditions: from Ki in YLG competition assays
Description: as §2, with “ShHTL7. The experiment was repeated 6 times independently.” for “ShHTL7.”
(§5) in a previous study6, the enzymes were incubated with YLG at the indicated concentrations. The RFU (relative fluorescence units) was calculated by dividing the fluorescence of hydrolysis at 10 μM YLG by wild type (WT) ShHTL7 after subtracting the fluorescence of the buffer. The Km values were calculated from a Michaelis-Menten plot using GraphPad Prism software and are shown in the plots. (d) Competition assays with synthetic SL rac-GR24. WT and ShHTL7 protein […]
(§6) The inhibition constant Ki was calculated according to the Cheng-Prusoff equation7. Kirac-GR24 values were 0.07 ± 0.01 μM for WT; 0.15 ± 0.04 μM for the T190F/C194F double mutation; and 11.85 ± 3.43 μM for the L124F/T190F/C194F triple mutation as shown in the plots. The experiment was repeated 4 times independently, and each replicate is represented by a black dot.
(§7) The mean values are fitted, and the error bars represent the standard deviation (S.D.) of three replicates (means ± S.D., n=3).

ShHTL7 T190F/C194F [7] = molecular target: ShHTL7 T190F/C194F (Striga hermonthica, UniProt A0A0M3PNA2, C194F/T190F); assay: YLG competition assay, ShHTL7 double mutation; type: biochemical
Sequence of ShHTL7 T190F/C194F (Striga hermonthica, UniProt A0A0M3PNA2, C194F/T190F) (A0A0M3PNA2 whole entry T190F/C194F): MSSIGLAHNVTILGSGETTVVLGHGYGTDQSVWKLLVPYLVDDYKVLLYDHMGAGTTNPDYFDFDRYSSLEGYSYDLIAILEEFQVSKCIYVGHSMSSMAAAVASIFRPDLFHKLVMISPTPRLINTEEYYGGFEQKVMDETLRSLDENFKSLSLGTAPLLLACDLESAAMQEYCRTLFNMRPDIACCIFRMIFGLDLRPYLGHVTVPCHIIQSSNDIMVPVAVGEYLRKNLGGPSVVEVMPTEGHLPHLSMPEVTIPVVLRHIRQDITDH
Description: as §2, with “ShHTL7. The experiment was repeated 6 times independently.” for “ShHTL7.”
as §5, §6, §7

[8] = test system: ShHTL7–ShMAX2 interaction; assay: Y2H assay ShHTL7-ShMAX2; type: cell-based, Striga hermonthica; conditions: 5 μM ligand
Excerpt: (§8) Full-length sequences of ShD14, ShHTL1, ShHTL3, ShHTL4, ShHTL7, and AtHTL were cloned into the pGBKT7 vector as bait (Clontech), and the coding regions of ShMAX2 and AtMAX2 were cloned into the pGADT7 vector as prey (Clontech). MAX2 was supposed to be unstable without ASK1. Therefore, AtASK1 was cloned into the N terminus of ShMAX2 and AtMAX2 with a 16-residue linker for co-expression. The bait and prey plasmids were co-transformed into the yeast (Saccharomyces cerevisiae) strain Y2HGold (Clontech) by the lithium acetate-mediated method. The presence of both plasmids was confirmed by growth on SD/-Leu/-Trp (-LT) plates. […] The plates were incubated for 5 days at 30 °C.

ShMAX2 and ShD14 = assay: In vitro pull-down ShD14-ShMAX2; type: binding, Striga hermonthica; conditions: 50 μM ligand, CBB staining
Description: (§9) Ni-NTA pull-down assays were performed with purified ShMAX2 or AtMAX2 as the bait and […]14, or GST-AtD14 as the prey. The molecular weight of the HTL/D14 proteins is nearly the same as that of ASK1; therefore, the HTL/D14 proteins were fused to GST, increasing their molecular weight for detection on SDS-PAGE gels. […] The protein complexes were then eluted with 100 μL of elution buffer containing 50 mM Bis-Tris, pH 6.8, 500 mM NaCl, and 500 mM imidazole and subjected to SDS-PAGE analysis.

ShHTL3 [9] = test system: ShHTL3; parameters: method as in PMID 27507097; conditions: cited from earlier work
AtD14 = molecular target: AtD14; parameters: method as in earlier work; conditions: read-out: Kd of rac-GR24 binding to AtD14; quoted in reviewer comment; cited from earlier work
ShMAX2 and ShHTL4 = assay: In vitro pull-down ShHTL4-ShMAX2; type: binding, Striga hermonthica; conditions: 50 μM ligand, CBB staining
Description: as §9

ShHTL7 [10] = molecular target: T2, ShHTL7; assay: YLG competition assay, WT ShHTL7; type: biochemical
Description: as §2, §3, §4

ShHTL1 [11] = molecular target: T3, ShHTL1; assay: ITC binding to ShHTL1; conditions: 750 μM ShHTL1 into 100 μM rac-GR24, 20 °C
Description: The binding assays were performed using a MicroCal iTC200 isothermal titration calorimeter (GE Healthcare). Prior to the ITC experiments, concentrated ShD14, ShHTL1, ShHTL4, and ShHTL7 were exchanged into a buffer consisting of 20 mM HEPES (pH 8.0) and 150 mM NaCl to remove dithiothreitol and were then adjusted to a final concentration of 150 μM. The sample cell was filled with protein solution (204 μL). Nineteen consecutive 2.0-μL aliquots of 3 mM KAR1 (3-methyl-2H-furo [2,3-c] pyran-2-one) were injected into a prepared protein solution at 150 s intervals at 20 °C. The first injection volume was 0.4 μL, and the observed thermal peak was excluded from the data analysis. A negative control was obtained by titrating 3 mM KAR1 into the buffer (20 mM HEPES, pH 8.0, 150 mM NaCl) in the same manner. Data fitting was performed in “one set of sites” mode, and KD values were calculated using Origin software provided by MicroCal.
Binding analyses of ShHTLs and ShD14 with KAR1. The ITC assays were performed by adding 3 mM KAR1 to 150 μM ShHTL1 (a), ShHTL4 (b), ShHTL7
(c), ShD14 (d) and AtHTL (e).
ShHTL1 and AtHTL were fitted using the MicroCal origin software with the “one binding site” model.

ShHTL3 [12] = assay: SL hydrolysis assay (HPLC), ShHTL3; type: biochemical, Striga hermonthica; conditions: 3.2 μM SL, 1.6 μM enzyme, 30 min, 30 °C
Description: as §1

ShD14–ShMAX2 interaction = assay: Y2H assay ShD14-ShMAX2; type: cell-based, Striga hermonthica; conditions: 5 μM ligand
Excerpt: as §8

[13] = molecular target: PYR1 in complex with co-receptor TYPE 2C PROTEIN PHOSPHATASE (PP2C); parameters: method as in PMID 21847091; conditions: cited from earlier work
[…] 1 (PYR1) = molecular target: […] 1 (PYR1); parameters: method as in PMID 21847091; conditions: read-out: KD of PYR1 for ABA; cited from earlier work

In the case of `CC1=C[C@H](O/C=C2/C(=O)O[C@@H]3c4ccccc4C[C@H]23)OC1=O` [GR24^ent−5DS], the “hydrolysis of GR24^ent−5DS by AtHTL” value (AtHTL) is given as “able to hydrolyze GR24^ent−5DS”.
In the case of `CC1=CC(OC=C2C(=O)OC3C4=C(CCCC4(C)C)CC23)OC1=O` (stereo not drawn) [5DS, 5-deoxystrigol], the “hydrolytic activity of ShHTL7 toward SL” value (ShHTL7 [1]) is reported as “able to hydrolyze”, the “hydrolytic activity of ShD14 toward SL” value (ShD14 [2]) is reported as “able to hydrolyze” and the “hydrolytic activity of ShHTL1 toward SL” value (ShHTL1 [3]) is reported as “weak 5DS hydrolytic activity”. The “hydrolytic activity of ShHTL4 toward SL” value (ShHTL4) was “able to hydrolyze”.
For `CCOC(=O)c1ccccc1-c1c2ccc(=O)cc-2oc2cc(OC3C=C(C)C(=O)O3)ccc12` (stereo not drawn) [YLG, Yoshimulactone Green], the “hydrolysis of YLG by ShD14” value (ShD14 [4]) is given as “not YLG” and the “hydrolytic activity of ShD14 toward YLG, previous study” value (ShD14 [5]) is given as “no hydrolytic activity toward YLG”.
In the case of `CC1=CC(O/C=C2/C(=O)OC3c4ccccc4CC23)OC1=O` (racemic) [rac-GR24], the “hydrolysis of rac-GR24 by AtHTL” value (AtHTL) is listed as “able to hydrolyze rac-GR24 to some extent”, the “hydrolytic activity of ShHTL7 toward SL” value (ShHTL7 [1]) is listed as “able to hydrolyze” and the IC50 (ShHTL7 L124F/T190F/C194F) is listed as 13900 ± 3410 nM. For the same compound, the Ki (ShHTL7 L124F/T190F/C194F) was 11800 ± 3430 nM, the “decrease in rac-GR24 binding affinity, T190F/C194F vs ShHTL7” value (ShHTL7 T190F/C194F [6]) was “twofold decrease” and the IC50 (ShHTL7 T190F/C194F [7]) was 210 ± 50 nM. For the same compound, the Ki (ShHTL7 T190F/C194F [7]) was 150 ± 40 nM, the “ligand-induced ShHTL7-ShMAX2 interaction” value [8] was “triggered the interaction of ShHTL7 with ShMAX2” and the “ligand-dependent ShMAX2-ShD14 interaction” value (ShMAX2 and ShD14) was “direct interaction was detected between ShMAX2 and ShD14 in a rac-GR24-dependent manner”. The “binding of rac-GR24 to ShHTL3” value (ShHTL3 [9]) was “can bind to KAR1 but not rac-GR24”, the Kd (AtD14) was 300 nM and the “hydrolytic activity of ShD14 toward SL” value (ShD14 [2]) was “able to hydrolyze”. The “ligand-dependent ShMAX2-ShHTL4 interaction” value (ShMAX2 and ShHTL4) was “able to interact with ShHTL4 of the divergent clade in the presence of rac-GR24”, the IC50 (ShHTL7 [10]) was 170 ± 10 nM and the Ki (ShHTL7 [10]) was 70 ± 10 nM. For the same compound, the “hydrolytic activity of ShHTL1 toward SL” value (ShHTL1 [3]) was “no hydrolytic activity”, the “binding of rac-GR24 to ShHTL1” value (ShHTL1 [11]) was “no detectable binding” and the “hydrolytic activity of ShHTL4 toward SL” value (ShHTL4) was “able to hydrolyze”. The “hydrolytic activity of ShHTL3 toward SL” value (ShHTL3 [12]) was “no hydrolytic activity” and the “ligand-induced ShD14-ShMAX2 interaction” value (ShD14–ShMAX2 interaction) was “rac-GR24-dependent ShD14–ShMAX2 interaction was also observed”.
In the case of `CCOC(=O)c1ccccc1-c1c2ccc(=O)cc-2oc2cc(OC3C=CC(=O)O3)ccc12` (stereo not drawn) [dYLG, desmethyl-YLG], the “hydrolysis of dYLG by AtHTL” value (AtHTL) is given as “hydrolyze the synthesized desmethyl-YLG (dYLG)”.
In the case of `CC1=CC(=O)CC(C)(C)[C@@]1(O)/C=C/C(C)=C\C(=O)O` [ABA, abscisic acid], the “binding affinities for ABA, PYR1-PP2C complex” value [13] is listed as “nanomolar range” and the Kd ([…] 1 (PYR1)) is listed as 97000 nM.
